Test results reported in article PMC10339703 (Clinical and Translational Science, 2023).

Test system: healthy subjects
Test: Safety and tolerability
Assay type: in vivo, human
[1] = MAD 25 mg tablet b.i.d. 14 days
[2] = MAD 50 mg tablet b.i.d. 14 days

Structure (SMILES): O[C@H]1CCCN[C@@H]1CCCn1cnc2c(Cl)c(Cl)ccc21 [Bersiporocin]
- ADRs, number of events [1]: 25
- Abdominal discomfort (ADR), number of events [1]: 1
- Abdominal discomfort (ADR), subjects n (%) [1]: 1 (16.7)
- Abdominal distension (ADR), number of events [1]: 3
- Abdominal distension (ADR), subjects n (%) [1]: 2 (33.3)
- Abdominal pain (ADR), number of events [1]: 5
- Abdominal pain (ADR), subjects n (%) [1]: 2 (33.3)
- Abdominal pain upper (ADR), subjects n (%) [1]: 0
- Acne (ADR), subjects n (%) [1]: 0
- Alanine aminotransferase increased (ADR), subjects n (%) [1]: 0
- Altered visual depth perception (ADR), subjects n (%) [1]: 0
- Balance disorder (ADR), subjects n (%) [1]: 0
- Bowel movement irregularity (ADR), number of events [1]: 1
- Bowel movement irregularity (ADR), subjects n (%) [1]: 1 (16.7)
- Cold sweat (ADR), number of events [1]: 1
- Cold sweat (ADR), subjects n (%) [1]: 1 (16.7)
- Constipation (ADR), subjects n (%) [1]: 0
- Decreased appetite (ADR), subjects n (%) [1]: 0
- Diarrhea (ADR), number of events [1]: 3
- Diarrhea (ADR), subjects n (%) [1]: 2 (33.3)
- Dizziness (ADR), subjects n (%) [1]: 0
- Dry mouth (ADR), subjects n (%) [1]: 0
- Dysgeusia (ADR), subjects n (%) [1]: 0
- Eructation (ADR), subjects n (%) [1]: 0
- Esophageal pain (ADR), subjects n (%) [1]: 0
- Euphoric mood (ADR), subjects n (%) [1]: 0
- Feces discolored (ADR), subjects n (%) [1]: 0
- Feces soft (ADR), subjects n (%) [1]: 0
- Feeling hot (ADR), number of events [1]: 1
- Feeling hot (ADR), subjects n (%) [1]: 1 (16.7)
- Flatulence (ADR), subjects n (%) [1]: 0
- Gastroesophageal reflux disease (ADR), number of events [1]: 2
- Gastroesophageal reflux disease (ADR), subjects n (%) [1]: 1 (16.7)
- Headache (ADR), subjects n (%) [1]: 0
- Hypoesthesia (ADR), subjects n (%) [1]: 0
- Impaired healing (ADR), subjects n (%) [1]: 0
- Malaise (ADR), number of events [1]: 1
- Malaise (ADR), subjects n (%) [1]: 1 (16.7)
- Myalgia (ADR), subjects n (%) [1]: 0
- Nausea (ADR), number of events [1]: 4
- Nausea (ADR), subjects n (%) [1]: 1 (16.7)
- Neutropenia (ADR), subjects n (%) [1]: 0
- Oropharyngeal pain (ADR), subjects n (%) [1]: 0
- Papule (ADR), subjects n (%) [1]: 0
- Pollakiuria (ADR), subjects n (%) [1]: 0
- Presyncope (ADR), subjects n (%) [1]: 0
- Proctalgia (ADR), subjects n (%) [1]: 0
- Salivary hypersecretion (ADR), number of events [1]: 3
- Salivary hypersecretion (ADR), subjects n (%) [1]: 2 (33.3)
- Skin irritation (ADR), subjects n (%) [1]: 0
- Somnolence (ADR), subjects n (%) [1]: 0
- Subjects with ADRs, n (%) [1]: 4 (66.7)
- Transaminases increased (ADR), subjects n (%) [1]: 0
- Tremor (ADR), subjects n (%) [1]: 0
- Vomiting (ADR), subjects n (%) [1]: 0
- ADRs, number of events [2]: 35
- Abdominal discomfort (ADR), subjects n (%) [2]: 0
- Abdominal distension (ADR), number of events [2]: 1
- Abdominal distension (ADR), subjects n (%) [2]: 1 (16.7)
- Abdominal pain (ADR), number of events [2]: 1
- Abdominal pain (ADR), subjects n (%) [2]: 1 (16.7)
- Abdominal pain upper (ADR), subjects n (%) [2]: 0
- Acne (ADR), subjects n (%) [2]: 0
- Alanine aminotransferase increased (ADR), number of events [2]: 1
- Alanine aminotransferase increased (ADR), subjects n (%) [2]: 1 (16.7)
- Altered visual depth perception (ADR), number of events [2]: 1
- Altered visual depth perception (ADR), subjects n (%) [2]: 1 (16.7)
- Balance disorder (ADR), subjects n (%) [2]: 0
- Bowel movement irregularity (ADR), subjects n (%) [2]: 0
- Cold sweat (ADR), subjects n (%) [2]: 0
- Constipation (ADR), number of events [2]: 1
- Constipation (ADR), subjects n (%) [2]: 1 (16.7)
- Decreased appetite (ADR), subjects n (%) [2]: 0
- Diarrhea (ADR), number of events [2]: 2
- Diarrhea (ADR), subjects n (%) [2]: 2 (33.3)
- Dizziness (ADR), number of events [2]: 1
- Dizziness (ADR), subjects n (%) [2]: 1 (16.7)
- Dry mouth (ADR), number of events [2]: 1
- Dry mouth (ADR), subjects n (%) [2]: 1 (16.7)
- Dysgeusia (ADR), number of events [2]: 2
- Dysgeusia (ADR), subjects n (%) [2]: 2 (33.3)
- Eructation (ADR), subjects n (%) [2]: 0
- Esophageal pain (ADR), subjects n (%) [2]: 0
- Euphoric mood (ADR), number of events [2]: 1
- Euphoric mood (ADR), subjects n (%) [2]: 1 (16.7)
- Feces discolored (ADR), number of events [2]: 1
- Feces discolored (ADR), subjects n (%) [2]: 1 (16.7)
- Feces soft (ADR), subjects n (%) [2]: 0
- Feeling hot (ADR), subjects n (%) [2]: 0
- Flatulence (ADR), subjects n (%) [2]: 0
- Gastroesophageal reflux disease (ADR), number of events [2]: 1
- Gastroesophageal reflux disease (ADR), subjects n (%) [2]: 1 (16.7)
- Headache (ADR), number of events [2]: 5
- Headache (ADR), subjects n (%) [2]: 3 (50.0)
- Hypoesthesia (ADR), number of events [2]: 1
- Hypoesthesia (ADR), subjects n (%) [2]: 1 (16.7)
- Impaired healing (ADR), subjects n (%) [2]: 0
- Malaise (ADR), subjects n (%) [2]: 0
- Myalgia (ADR), number of events [2]: 2
- Myalgia (ADR), subjects n (%) [2]: 2 (33.3)
- Nausea (ADR), number of events [2]: 6
- Nausea (ADR), subjects n (%) [2]: 4 (66.7)
- Neutropenia (ADR), subjects n (%) [2]: 0
- Oropharyngeal pain (ADR), number of events [2]: 1
- Oropharyngeal pain (ADR), subjects n (%) [2]: 1 (16.7)
- Papule (ADR), subjects n (%) [2]: 0
- Pollakiuria (ADR), number of events [2]: 1
- Pollakiuria (ADR), subjects n (%) [2]: 1 (16.7)
- Presyncope (ADR), subjects n (%) [2]: 0
- Proctalgia (ADR), subjects n (%) [2]: 0
- Salivary hypersecretion (ADR), subjects n (%) [2]: 0
- Skin irritation (ADR), subjects n (%) [2]: 0
- Somnolence (ADR), subjects n (%) [2]: 0
- Subjects with ADRs, n (%) [2]: 6 (100)
- Transaminases increased (ADR), subjects n (%) [2]: 0
- Tremor (ADR), subjects n (%) [2]: 0
- Vomiting (ADR), number of events [2]: 5
- Vomiting (ADR), subjects n (%) [2]: 3 (50.0)
